Results taken from patent publication US9181288B2, “Azepane derivatives and methods of treating hepatitis B infections” (Novira Therapeutics, Inc., priority 2014, dated 2015).

Columns and labels:
[1] = tested on: HBV replication in HepG2-2.2.15 cells; assay: Inhibition of HBV replication dot-blot assay; assay type: cell-based; conditions: Hepatitis B virus, 144 h, six days, reduction in HBV DNA levels
Procedure: Compounds active in the HBV assembly assay are tested for their activity and toxicity in cellular assay. In the first anti-viral assay, the ability of compounds to inhibit HBV replication in an HBV-producing hepatoma cell line using the dot-blot method is evaluated.
Briefly, confluent monolayers of HepG2-2.2.15 cells are incubated with complete medium containing various concentrations of a test compound. Three days later, the culture medium is replaced with fresh medium containing the appropriately diluted test compound. Six days following the initial administration of the test compound, the cell culture supernatant is collected, and cell lysis is performed. The samples are applied onto Nylos membranes and DNA is immobilized to the membrane by UV cross-linking. After pre-hybridization, the HBV probe is added and the hybridization is performed overnight. The membranes are exposed to the Kodak films; antiviral activity is calculated from the reduction in HBV DNA levels (EC50). The EC50 for antiviral activity is calculated from the dose response curves of active compounds. Assay performance over time is monitored by the use of the standard positive control compounds ETV, BAY 41-4109, and HAP-1.
Selected compounds were tested for their activity and toxicity in cellular assay. In the first anti-viral assay, the ability of compounds to inhibit HBV replication in an HBV-producing hepatoma cell line using the dot-blot method was evaluated.
Confluent monolayers of HepG2-2.2.15 cells were incubated with complete medium containing various concentrations of a test compound. Three days later, the culture medium was replaced with fresh medium containing the appropriately diluted test compound. Six days following the initial administration of the test compound, the cell culture supernatant was collected, and cell lysis was performed. The samples were applied onto Nylos membranes and DNA was immobilized to the membrane by UV cross-linking. After pre-hybridization, the HBV probe was added and the hybridization was performed overnight. The membranes were exposed to the Kodak films; antiviral activity was calculated from the reduction in HBV DNA levels (EC50). The EC50 for antiviral activity was calculated from the dose response curves of active compounds. Assay performance over time was monitored by the use of the standard positive control compounds ETV, BAY 41-4109, and HAP-1.

[2] = molecular target: HBV C150Bo capsid protein (mutant C150 HBV core protein labeled with BODIPY-FL) (Hepatitis B virus genotype D subtype adw, UniProt P03147, C107A/C48A/C61A/R150C); assay: HBV assembly assay (fluorescence quenching in vitro capsid assembly); assay type: biochemical; conditions: at about 10 μM; 50 mM Hepes pH 7.5, 150 mM NaCl, 1 hour room temperature
Sequence of HBV C150Bo capsid protein (mutant C150 HBV core protein labeled with BODIPY-FL) (P03147 1-150 C48A/C61A/C107A/R150C): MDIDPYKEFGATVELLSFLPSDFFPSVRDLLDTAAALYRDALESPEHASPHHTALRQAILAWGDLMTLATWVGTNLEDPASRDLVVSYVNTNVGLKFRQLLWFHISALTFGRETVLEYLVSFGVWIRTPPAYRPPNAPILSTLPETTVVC

Row | SMILES | inhibition at 10 µM [1] [%] | Activity (HBV assembly assay) [2]
1 | O=C(Nc1cc(F)c(F)c(F)c1)c1ccc(F)c(S(=O)(=O)N2CCOCC(O)C2)c1 (stereo not shown) [Compound 1895] | > 50 | + (‘+’ indicates >50% activity at about 10 μM)
2 | O=C(Nc1ccc(F)c(Cl)c1)c1ccc(CF)c(S(=O)(=O)N2CCCCCC2)c1 [Compound 2004] | > 50 | + (‘+’ indicates >50% activity at about 10 μM)
3 | O=C(Nc1cc(F)c(F)c(F)c1)c1ccc(F)c(S(=O)(=O)N2CC(O)CCC(F)C2)c1 (stereo not shown) [Compound 1826_D2] | > 50 | + (‘+’ indicates >50% activity at about 10 μM)
4 | CC(=O)O[C@@H]1CC[C@@H](O)CN(S(=O)(=O)c2cc(C(=O)Nc3cc(F)c(F)c(F)c3)ccc2F)C1 [Compound 2618_D1] | > 50 | + (‘+’ indicates >50% activity at about 10 μM)
5 | O=C(Nc1ccc(F)c(F)c1)c1ccc(F)c(S(=O)(=O)N2CC(O)CC3CC3C2)c1 (stereo not shown) [Compound 2547] | > 50 | + (‘+’ indicates >50% activity at about 10 μM)
6 | O=C(Nc1ccc(F)c(Cl)c1)c1ccc(CO)c(S(=O)(=O)N2CCCCC(F)C2)c1 (stereo not shown) [Compound 1768] | > 50 | + (‘+’ indicates >50% activity at about 10 μM)
7 | CC(=O)O[C@@H]1CC[C@H](OC(C)=O)CN(S(=O)(=O)c2cc(C(=O)Nc3cc(F)c(F)c(F)c3)ccc2F)C1 [Compound 2625_D2] | > 50 | + (‘+’ indicates >50% activity at about 10 μM)
8 | O=C(Nc1cc(F)c(F)c(F)c1)c1ccc(F)c(S(=O)(=O)N2CC(O)CC3CC3C2)c1 (stereo not shown) [Compound 2548] | > 50 | + (‘+’ indicates >50% activity at about 10 μM)
9 | O=C(Nc1ccc(F)c(Cl)c1)c1cccc(S(=O)(=O)N2CCOCC(O)C2)c1 (stereo not shown) [Compound 1977] | > 50 | + (‘+’ indicates >50% activity at about 10 μM)
10 | CC1(O)CCCCN(S(=O)(=O)c2cc(C(=O)Nc3cc(F)c(F)c(F)c3)ccc2F)C1 (stereo not shown) [Compound 1892] | > 50 | + (‘+’ indicates >50% activity at about 10 μM)
11 | CC1(O)CCCN(S(=O)(=O)c2cc(C(=O)Nc3cc(F)c(F)c(F)c3)ccc2CF)CC1 (stereo not shown) [Compound 1829-2] | > 50 | + (‘+’ indicates >50% activity at about 10 μM)
12 | O=C(Nc1ccc(F)c(Cl)c1)c1ccc(F)c(S(=O)(=O)N2CCC[C@@H](O)CC2)c1 [Compound 1766_E1] | > 50 | + (‘+’ indicates >50% activity at about 10 μM)
13 | CC1(O)CCCN(S(=O)(=O)c2cc(C(=O)Nc3ccc(F)c(F)c3)ccc2F)CC1 (stereo not shown) [Compound 1938] | > 50 | + (‘+’ indicates >50% activity at about 10 μM)
14 | COc1ccc(C(=O)Nc2ccc(F)c(Cl)c2)cc1S(=O)(=O)N1CCOCC(O)C1 (stereo not shown) [Compound 1980] | > 50 | + (‘+’ indicates >50% activity at about 10 μM)
15 | O=C(Nc1cc(F)c(F)c(F)c1)c1ccc(F)c(S(=O)(=O)N2CCCC(O)C(F)(F)C2)c1 (stereo not shown) [Compound 2199] | > 50 | + (‘+’ indicates >50% activity at about 10 μM)
16 | O=C(Nc1ccc(F)c(F)c1)c1ccc(F)c(S(=O)(=O)N2CCOCC(O)C2)c1 (stereo not shown) [Compound 1894] | > 50 | + (‘+’ indicates >50% activity at about 10 μM)
17 | O=C(Nc1ccc(F)c(Cl)c1)c1cc(S(=O)(=O)N2CCCC(O)CC2)c2[nH]cnc2c1 (stereo not shown) [Compound 2033] | > 50 | + (‘+’ indicates >50% activity at about 10 μM)
18 | O=C(Nc1ccc(F)c(Cl)c1)c1ccc(CCF)c(S(=O)(=O)N2CCCC(O)CC2)c1 (stereo not shown) [Compound 2205, N-(3-chloro-4-fluoro-phenyl)-4-(2-fluoroethyl)-3-(4-hydroxyazepan-1-yl)sulfonyl-benzamide] | > 50 | + (‘+’ indicates >50% activity at about 10 μM)
19 | O=C(Nc1ccc(F)c(F)c1)c1ccc(F)c(S(=O)(=O)N2CCCC(F)C(O)C2)c1 (stereo not shown) [Compound 1821] | > 50 | + (‘+’ indicates >50% activity at about 10 μM)
20 | O=C(Nc1cc(F)c(F)c(F)c1)c1ccc(CF)c(S(=O)(=O)N2CCOCC(O)C2)c1 (stereo not shown) [Compound 1981] | > 50 | + (‘+’ indicates >50% activity at about 10 μM)
21 | CC1(O)CCCCN(S(=O)(=O)c2cc(C(=O)Nc3ccc(F)c(F)c3)ccc2F)C1 (stereo not shown) [Compound 1891] | > 50 | + (‘+’ indicates >50% activity at about 10 μM)
22 | O=C(Nc1ccc(F)c(Cl)c1)c1ccc(F)c(S(=O)(=O)N2CCCC(F)[C@H](O)C2)c1 (stereo partly shown) [Compound 1822_D2] | > 50 | + (‘+’ indicates >50% activity at about 10 μM)
23 | O=C(Nc1ccc(F)c(Cl)c1)c1ccc(CO)c(S(=O)(=O)N2CCCC(F)CC2)c1 (stereo not shown) [Compound 1769] | > 50 | + (‘+’ indicates >50% activity at about 10 μM)
24 | O=C(Nc1ccc(F)c(Cl)c1)c1ccc(F)c(S(=O)(=O)N2CCOC[C@@H](O)C2)c1 [Compound 1893_E1] | > 50 | + (‘+’ indicates >50% activity at about 10 μM)
25 | O=C(Nc1cc(F)c(F)c(F)c1)c1ccc(F)c(S(=O)(=O)N2CCC[C@H](O)C(F)C2)c1 (stereo partly shown) [Compound 1829_D2] | > 50 | + (‘+’ indicates >50% activity at about 10 μM)
26 | O=C(Nc1cc(F)c(F)c(F)c1)c1ccc(F)c(S(=O)(=O)N2CCC[C@@H](O)C(F)C2)c1 (stereo partly shown) [Compound 1829_D1] | > 50 | + (‘+’ indicates >50% activity at about 10 μM)
27 | Cc1ccc(C(=O)Nc2ccc(F)c(Cl)c2)cc1S(=O)(=O)N1CCCC(O)CC1 (stereo not shown) [Compound 1910] | > 50 | + (‘+’ indicates >50% activity at about 10 μM)
28 | CC(=O)OC1CCCCN(S(=O)(=O)c2cc(C(=O)Nc3cc(F)c(F)c(F)c3)ccc2F)C1 (stereo not shown) [Compound 2024] | > 50 | + (‘+’ indicates >50% activity at about 10 μM)
29 | COc1ccc(C(=O)Nc2ccc(F)c(Cl)c2)cc1S(=O)(=O)N1CCCC(O)C(F)C1 (stereo not shown) [Compound 2114_D1] | > 50 | + (‘+’ indicates >50% activity at about 10 μM)
